US20100210649A1, “PYRIDAZINONES AND FURAN-CONTAINING COMPOUNDS” (Sloan-Kettering Institute for Cancer Research, priority 2006, published 2010)
Like-named read-outs stand apart in the source and are kept apart here.

Experiments:
[1] = system: H1975; assay: Non Small Cell Lung Cancer proliferation assay (Alamar Blue reduction), H1975; format: cell-based, human; conditions: Homo sapiens
In short: (§1)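 Compounds are tested at 1% DMSO final concentration against adherent NSCLC cells for 48 h at 37° C, with cytotoxicity measured by Alamar Blue reduction after a further 48 h incubation.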

[2] = system: H2030; assay: Non Small Cell Lung Cancer proliferation assay (Alamar Blue reduction), H2030; format: cell-based, human; conditions: Homo sapiens
In short: as §1

[3] = system: H3255; assay: Non Small Cell Lung Cancer proliferation assay (Alamar Blue reduction), H3255; format: cell-based, human; conditions: Homo sapiens
In short: as §1

[4] = system: H358; assay: Non Small Cell Lung Cancer proliferation assay (Alamar Blue reduction), H358; format: cell-based; conditions: Homo sapiens, NCI-H358
In short: as §1

[5] = in vitro; conditions: human
[6] = system: PC9; assay: Dose response study (Alamar Blue), PC9; format: cell-based; conditions: Homo sapiens, PC-9; PC9; 12 point doubling dilution 10 uM to 5 nM; 48 h treatment, alamar blue additional 48 h; read-out: IC50 PC9
Experimental: (§2) Dose response studies against 34 compounds from the pyridazinone and phenylfuran-carboxamide class were conducted. […] In addition, Tarceva was included in these dose response studies.
(§3) The dose response studies were done with the following standard procedure. First, the cells were counted and dispensed at 250 cells/well into 384-well microplates with compound. The cells were incubated for 48 hours at 37 C to complete treatment, and then alamar blue was added for an additional 48 hours. Finally, alamar blue reduction was measured and the data was loaded into ORIS, our data screening acquisition platform.

[7] = system: A549; assay: Dose response study (Alamar Blue), A549; format: cell-based; conditions: Homo sapiens; A549; 12 point doubling dilution 10 uM to 5 nM; 48 h treatment, alamar blue additional 48 h; read-out: IC50 A549
Experimental: as §2, §3

[8] = system: H23; assay: Dose response study (Alamar Blue), H23; format: cell-based; conditions: Homo sapiens, NCI-H23; H23; 12 point doubling dilution 10 uM to 5 nM; 48 h treatment, alamar blue additional 48 h; read-out: IC50 H23
Experimental: as §2, §3

[9] = system: H460; assay: Dose response study (Alamar Blue), H460; format: cell-based; conditions: Homo sapiens, NCI-H460; H460; 12 point doubling dilution 10 uM to 5 nM; 48 h treatment, alamar blue additional 48 h; read-out: IC50 H460
Experimental: as §2, §3

[10] = system: H2122; assay: Dose response study (Alamar Blue), H2122; format: cell-based; conditions: Homo sapiens, NCI-H2122; H2122; 12 point doubling dilution 10 uM to 5 nM; 48 h treatment, alamar blue additional 48 h; read-out: IC50 H2122
Experimental: as §2, §3

[11] = NCI-H1975, 48 h, H1975, 12 point doubling dilution 10 uM to 5 nM, 48 h treatment, alamar blue additional 48 h, read-out: IC50 H1975
[12] = NCI-H1975, dose response 10 M to 5 nM, IC50, read-out: Dose Response (uM) H1975
[13] = NCI-H2030, 48 h, H2030, 12 point doubling dilution 10 uM to 5 nM, 48 h treatment, alamar blue additional 48 h, read-out: IC50 H2030
[14] = NCI-H2030, dose response 10 M to 5 nM, IC50, read-out: Dose Response (uM) H2030
[15] = NCI-H3255, 48 h, H3255, 12 point doubling dilution 10 uM to 5 nM, 48 h treatment, alamar blue additional 48 h, read-out: IC50 H3255
[16] = NCI-H3255, dose response 10 M to 5 nM, IC50, read-out: Dose Response (uM) H3255
[17] = H358, 12 point doubling dilution 10 uM to 5 nM, 48 h treatment, alamar blue additional 48 h, read-out: IC50 H358
[18] = read-out: Dose Response (uM) H358

IC50 [1, 11] [µM] | IC50 [1, 12] [µM] | IC50 [2, 13] [µM] | IC50 [2, 14] [µM] | IC50 [3, 15] [µM] | IC50 [3, 16] [µM] | IC50 [4, 17] [µM] | IC50 [4, 18] [µM] | IC50 [6] [nM] | IC50 [7] [nM] | IC50 [9] [nM] | IC50 [10] [nM] | SMILES | IC50 at 72 h ([5]; CytoTox (uM) NHBE) [µM] | IC50 at 72 h ([5]; CytoTox (uM) WI-38) [µM] | IC50 [8] [nM]
0.37 | 0.25 | 0.47 | 1.23 | 1.23 | 1.2 | 0.78 | 0.43 | 880 | 1930 | 1970 | 1590 | O=c1c(Cl)c(Cl)cnn1-c1ccc2c(c1)OCCO2 [compound 267068] | 1.56 | 3.96 | 290
3.6 | 2.16 | 4.01 | 6.83 | > 10 | 6.5 | 6.66 | 4.76 | 6210 | 7390 | > 10000 | 9040 | O=c1c(Cl)c(Cl)cnn1Cc1ccccc1 [compound 267069] | 7.32 | > 10 | 2530
> 10 | 0.91 | > 10 | 5.18 | > 10 | 3.1 | > 10 | 0.97 | > 10000 | > 10000 | > 10000 | > 10000 | Cc1ccc(-n2ncc(Cl)c(Cl)c2=O)cc1Cl [compound 267070] | > 10 | > 10 | > 10000
0.36 | 0.22 | 0.37 | 1.22 | 0.76 | 0.81 | 0.4 | 0.21 | 860 | 1620 | 1430 | 1260 | Cc1cccc(-n2ncc(Br)c(Br)c2=O)c1 [compound 267071] | 1.61 | 2.61 | 260
2.08 | 0.05 | 3.55 | 1.27 | 8.75 | – | 3.22 | 0.14 | > 10000 | > 10000 | > 10000 | > 10000 | O=c1c(Cl)c(Cl)cnn1-c1ccc(Cl)cc1Cl [compound 267077] | 1.1 | 1.74 | 1720
0.8 | 0.5 | 0.81 | 0.99 | 2.13 | 0.71 | 1.33 | 0.3 | 2240 | 3270 | 3490 | 2340 | Cc1cccc(-n2ncc(I)c(I)c2=O)c1 [compound 267085] | 2.88 | 5.51 | 720
0.16 | 0.2 | 0.17 | 0.41 | 0.7 | 0.5 | 0.21 | 0.06 | 470 | 540 | 790 | 890 | O=c1c(Cl)c(Cl)cnn1-c1ccccn1 [compound 267090] | 1.43 | 1.19 | 80

Continued, compound first:

SMILES | IC50 [1, 11] [µM] | IC50 [1, 12] [µM] | IC50 [2, 13] [µM] | IC50 [2, 14] [µM] | IC50 [3, 15] [µM] | IC50 [3, 16] [µM] | IC50 [4, 17] [µM] | IC50 [4, 18] [µM] | IC50 [6] [nM] | IC50 [7] [nM] | IC50 [9] [nM] | IC50 [10] [nM] | IC50 at 72 h ([5]; CytoTox (uM) NHBE) [µM] | IC50 at 72 h ([5]; CytoTox (uM) WI-38) [µM] | IC50 [8] [nM]
O=c1c(Br)c(Br)cnn1-c1cccc(C(F)(F)F)c1 [compound 267072] | 0.93 | 0.2 | 0.85 | – | 1.64 | 1 | 0.85 | 0.15 | 2590 | 3420 | 2760 | 4610 | 1.43 | 2.17 | 840
O=c1c(Br)c(Br)cnn1-c1ccccn1 [compound 267073] | 0.16 | 0.09 | 0.12 | 0.76 | 0.45 | 0.66 | 0.14 | 0.07 | 420 | 310 | 420 | 780 | 1.33 | 0.89 | 70
COc1cccc(-n2ncc(Br)c(Br)c2=O)c1 [compound 267083] | 0.24 | 0.23 | 0.26 | 0.57 | 0.65 | 0.35 | 0.3 | 0.13 | 740 | 1070 | 910 | 1150 | 1.85 | 2.6 | 210
COCCOc1cccc(-n2ncc(Br)c(Br)c2=O)c1 [compound 267084] | 0.21 | 0.23 | 0.22 | 0.61 | 0.71 | 0.38 | 0.27 | 0.13 | 680 | 840 | 890 | 1120 | 2.56 | 2.33 | 170
NCCCOc1cccc(-n2ncc(Br)c(Br)c2=O)c1 [compound 273634] | 0.41 | 0.44 | 0.47 | 0.67 | 0.99 | 1.11 | 0.69 | 0.24 | 970 | 1650 | 1470 | 1420 | 2.94 | 4.53 | 380
